pIC50: −log10 of the molar value.
Test system: 996289-038-R-J1-PDC spheroid viability
Assay: Anticancer human tumor 996289-038-R-J1-PDC patient-derived colon adenocarcinoma cell line growth inhibition [PI3K]
Conditions: spheroids with HUVEC and MSC; for viability, T/C: stronger effect = lower value
Method in brief: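 Agents were dosed from a top concentration near clinical Cmax (otherwise 10 microM) in half-log decrements, alone or combined with PI3K inhibitors. The spheroids contain tumor cells plus endothelial (HUVEC) and MSC stroma; viability is measured.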

[1] = curve of first compound, second compound 0.0316 µM
[2] = curve of first compound, second compound 0.1 µM
[3] = curve of first compound, second compound 0.316 µM
[4] = curve of first compound, second compound 1 µM
[5] = curve of first compound, second compound 3.16 µM
[6] = curve of first compound, second compound 10 µM
[7] = second compound 0.0316 µM, first compound 0.00316 µM
[8] = second compound 0.0316 µM, first compound 0.01 µM
[9] = second compound 0.0316 µM, first compound 0.0316 µM
[10] = second compound 0.0316 µM, first compound 0.1 µM
[11] = second compound 0.1 µM, first compound 0.00316 µM
[12] = second compound 0.1 µM, first compound 0.01 µM
[13] = second compound 0.1 µM, first compound 0.0316 µM
[14] = second compound 0.1 µM, first compound 0.1 µM
[15] = second compound 0.316 µM, first compound 0.00316 µM
[16] = second compound 0.316 µM, first compound 0.01 µM
[17] = second compound 0.316 µM, first compound 0.0316 µM
[18] = second compound 0.316 µM, first compound 0.1 µM
[19] = second compound 1 µM, first compound 0.00316 µM
[20] = second compound 1 µM, first compound 0.01 µM
[21] = second compound 1 µM, first compound 0.0316 µM
[22] = second compound 1 µM, first compound 0.1 µM
[23] = second compound 3.16 µM, first compound 0.00316 µM
[24] = second compound 3.16 µM, first compound 0.01 µM
[25] = second compound 3.16 µM, first compound 0.0316 µM
[26] = second compound 3.16 µM, first compound 0.1 µM
[27] = second compound 10 µM, first compound 0.00316 µM
[28] = second compound 10 µM, first compound 0.01 µM
[29] = second compound 10 µM, first compound 0.0316 µM
[30] = second compound 10 µM, first compound 0.1 µM
[31] = second compound 0.0316 µM, first compound 0.316 µM
[32] = second compound 0.0316 µM, first compound 1 µM
[33] = second compound 0.1 µM, first compound 0.316 µM
[34] = second compound 0.1 µM, first compound 1 µM
[35] = second compound 0.316 µM, first compound 0.316 µM
[36] = second compound 0.316 µM, first compound 1 µM
[37] = second compound 1 µM, first compound 0.316 µM
[38] = second compound 1 µM, first compound 1 µM
[39] = second compound 3.16 µM, first compound 0.316 µM
[40] = second compound 3.16 µM, first compound 1 µM
[41] = second compound 10 µM, first compound 0.316 µM
[42] = second compound 10 µM, first compound 1 µM
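Note: spheroids exposed to compounds for seven days before viability read.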
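Throughout, for viability, T/C: luminescence used as a proxy for viable cell amount; percent viability relative to DMSO vehicle control as 100%.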

CC(=O)c1c(C)c2cnc(Nc3ccc(N4CCNCC4)cn3)nc2n(C2CCCC2)c1=O + Cc1nc(NC(=O)N2CCCC2C(N)=O)sc1-c1ccnc(C(C)(C)C(F)(F)F)c1
pIC50 [1]: < 7.00
pIC50 [2]: < 7.00
pIC50 [3]: < 7.00
pIC50 [4]: < 7.00
pIC50 [5]: < 7.00
pIC50 [6]: > 9.50
viability, T/C (second compound 0.0316 µM, first compound 0.000316 µM): 99.8%
viability, T/C (second compound 0.0316 µM, first compound 0.001 µM): 83.4%
viability, T/C [7]: 89.9%
viability, T/C [8]: 86.4%
viability, T/C [9]: 110%
viability, T/C [10]: 99.8%
viability, T/C (second compound 0.1 µM, first compound 0.000316 µM): 111%
viability, T/C (second compound 0.1 µM, first compound 0.001 µM): 88.9%
viability, T/C [11]: 107%
viability, T/C [12]: 91.7%
viability, T/C [13]: 94.7%
viability, T/C [14]: 81.6%
viability, T/C (second compound 0.316 µM, first compound 0.000316 µM): 81.5%
viability, T/C (second compound 0.316 µM, first compound 0.001 µM): 78.1%
viability, T/C [15]: 80%
viability, T/C [16]: 80.2%
viability, T/C [17]: 86.4%
viability, T/C [18]: 77.7%
viability, T/C (second compound 1 µM, first compound 0.000316 µM): 77.7%
viability, T/C (second compound 1 µM, first compound 0.001 µM): 74.5%
viability, T/C [19]: 69.2%
viability, T/C [20]: 69.7%
viability, T/C [21]: 85.2%
viability, T/C [22]: 66.7%
viability, T/C (second compound 3.16 µM, first compound 0.000316 µM): 60.1%
viability, T/C (second compound 3.16 µM, first compound 0.001 µM): 57.9%
viability, T/C [23]: 62.7%
viability, T/C [24]: 61.7%
viability, T/C [25]: 57.9%
viability, T/C [26]: 48%
viability, T/C (second compound 10 µM, first compound 0.000316 µM): 45.4%
viability, T/C (second compound 10 µM, first compound 0.001 µM): 40.6%
viability, T/C [27]: 36.6%
viability, T/C [28]: 39.9%
viability, T/C [29]: 47.4%
viability, T/C [30]: 36.8%

C=CC(=O)N1CCN(c2nc(=O)n(-c3c(C)ccnc3C(C)C)c3nc(-c4c(O)cccc4F)c(F)cc23)C(C)C1 (stereo not drawn) + Cc1nc(NC(=O)N2CCCC2C(N)=O)sc1-c1ccnc(C(C)(C)C(F)(F)F)c1
pIC50 [1]: < 5.00
pIC50 [2]: < 5.00
pIC50 [3]: < 5.00
pIC50 [4]: < 5.00
pIC50 [5]: < 5.00
pIC50 [6]: 7.34
viability, T/C [9]: 91.4%
viability, T/C [10]: 107%
viability, T/C [31]: 111%
viability, T/C [32]: 116%
viability, T/C (second compound 0.0316 µM, first compound 3.16 µM): 115%
viability, T/C (second compound 0.0316 µM, first compound 10 µM): 114%
viability, T/C [13]: 87.5%
viability, T/C [14]: 90.4%
viability, T/C [33]: 90.5%
viability, T/C [34]: 96.7%
viability, T/C (second compound 0.1 µM, first compound 3.16 µM): 122%
viability, T/C (second compound 0.1 µM, first compound 10 µM): 93.5%
viability, T/C [17]: 79.8%
viability, T/C [18]: 95.2%
viability, T/C [35]: 94.7%
viability, T/C [36]: 83.6%
viability, T/C (second compound 0.316 µM, first compound 3.16 µM): 97.5%
viability, T/C (second compound 0.316 µM, first compound 10 µM): 89.9%
viability, T/C [21]: 88.6%
viability, T/C [22]: 85.8%
viability, T/C [37]: 75.6%
viability, T/C [38]: 87.5%
viability, T/C (second compound 1 µM, first compound 3.16 µM): 77.6%
viability, T/C (second compound 1 µM, first compound 10 µM): 80.1%
viability, T/C [25]: 59.5%
viability, T/C [26]: 71.7%
viability, T/C [39]: 74.7%
viability, T/C [40]: 61.6%
viability, T/C (second compound 3.16 µM, first compound 3.16 µM): 64.4%
viability, T/C (second compound 3.16 µM, first compound 10 µM): 59.5%
viability, T/C [29]: 50.5%
viability, T/C [30]: 50.7%
viability, T/C [41]: 43.2%
viability, T/C [42]: 40.6%
viability, T/C (second compound 10 µM, first compound 3.16 µM): 48.8%
viability, T/C (second compound 10 µM, first compound 10 µM): 47.4%

CCN1CCN(Cc2ccc(Nc3ncc(F)c(-c4cc(F)c5nc(C)n(C(C)C)c5c4)n3)nc2)CC1 + Cc1nc(NC(=O)N2CCCC2C(N)=O)sc1-c1ccnc(C(C)(C)C(F)(F)F)c1
pIC50 [1]: < 6.00
pIC50 [2]: < 6.00
pIC50 [3]: < 6.00
pIC50 [4]: < 6.00
pIC50 [5]: 7.42
pIC50 [6]: > 8.50
viability, T/C [7]: 84.2%
viability, T/C [8]: 72%
viability, T/C [9]: 83.4%
viability, T/C [10]: 78.7%
viability, T/C [31]: 72.7%
viability, T/C [32]: 79.7%
viability, T/C [11]: 89.8%
viability, T/C [12]: 83%
viability, T/C [13]: 79.7%
viability, T/C [14]: 75.4%
viability, T/C [33]: 75.2%
viability, T/C [34]: 67.3%
viability, T/C [15]: 85.9%
viability, T/C [16]: 74.4%
viability, T/C [17]: 70.7%
viability, T/C [18]: 63%
viability, T/C [35]: 63.1%
viability, T/C [36]: 59.2%
viability, T/C [19]: 75.8%
viability, T/C [20]: 74.2%
viability, T/C [21]: 56.7%
viability, T/C [22]: 54.8%
viability, T/C [37]: 58.4%
viability, T/C [38]: 50.9%
viability, T/C [23]: 51.4%
viability, T/C [24]: 56.2%
viability, T/C [25]: 51.4%
viability, T/C [26]: 46.1%
viability, T/C [39]: 43.7%
viability, T/C [40]: 44.2%
viability, T/C [27]: 37.5%
viability, T/C [28]: 40%
viability, T/C [29]: 33.9%
viability, T/C [30]: 33.6%
viability, T/C [41]: 29.6%
viability, T/C [42]: 27.9%

Cn1nccc1Nc1nccc(-c2ccn(C(CO)c3ccc(Cl)c(F)c3)c(=O)c2)n1 (stereo not drawn)
viability, T/C (compound 0.0316 µM): 98.7% [middle of 4 runs]
viability, T/C (compound 0.1 µM): 97% [middle of 4 runs]
viability, T/C (compound 0.316 µM): 112% [middle of 4 runs]
viability, T/C (compound 1 µM): 90.8% [middle of 4 runs]
viability, T/C (compound 3.16 µM): 76.5% [middle of 4 runs]
viability, T/C (compound 10 µM): 64.7% [middle of 4 runs]
pIC50 (curve of compound): < 5.00

Source: PubChem BioAssay AID1963965 (Molecular Pharmacology Branch, DTP, NCI, 2024)
